Several values for one entry are separate records, joined by “and”; a condition that tells them apart may be missing. Equal values may be shown once. ± gives the expanded uncertainty stated by the source.
Tests used:
[1] = Crystal; for vapor or sublimation pressure: Closed cell (Static) method
[2] = Molar enthalpy of transition or fusion; settings: Crystal; DSC
[3] = molar heat capacity at constant pressure; settings: 100 kPa, DSC

C1=Cc2cccc3cccc1c23 [acenaphthylene]
[1]
Settings	Normal melting temperature [°C]	vapor or sublimation pressure
296.95 K	–	0.00087 ± 0.00011 kPa
296.97 K	–	0.00086 ± 0.00011 kPa
296.98 K	–	0.00088 ± 0.00011 kPa
302.22 K	–	0.00147 ± 0.00012 kPa
302.23 K	–	0.00148 ± 0.00012 kPa and 0.00147 ± 0.00012 kPa
307.47 K	–	0.00244 ± 0.00014 kPa
307.48 K	–	0.00247 ± 0.00014 kPa
307.49 K	–	0.00243 ± 0.00014 kPa
312.71 K	–	0.00399 ± 0.00019 kPa
312.72 K	–	0.00399 ± 0.00019 kPa and 0.00397 ± 0.00019 kPa
317.89 K	–	0.00629 ± 0.00027 kPa and 0.00628 ± 0.00027 kPa and 0.00632 ± 0.00027 kPa
323.06 K	–	0.00986 ± 0.0004 kPa
323.07 K	–	0.00984 ± 0.0004 kPa and 0.00986 ± 0.0004 kPa
328.2 K	–	0.01511 ± 0.00055 kPa
328.21 K	–	0.01516 ± 0.00055 kPa
328.22 K	–	0.01513 ± 0.00055 kPa
333.33 K	–	0.02281 ± 0.00067 kPa
333.34 K	–	0.02286 ± 0.00067 kPa and 0.02282 ± 0.00067 kPa
338.45 K	–	0.03393 ± 0.00084 kPa and 0.03392 ± 0.00084 kPa
343.49 K	–	0.04954 ± 0.0011 kPa
343.5 K	–	0.04955 ± 0.0011 kPa and 0.0496 ± 0.0011 kPa
348.54 K	–	0.07154 ± 0.0014 kPa and 0.07156 ± 0.0014 kPa
353.54 K	–	0.1018 ± 0.0019 kPa
353.55 K	–	0.1017 ± 0.0019 kPa and 0.1018 ± 0.0019 kPa
358.56 K	–	0.1434 ± 0.0021 kPa and 0.1435 ± 0.0021 kPa
361.06 K	–	0.1694 ± 0.0023 kPa
361.07 K	–	0.1693 ± 0.0023 kPa and 0.1695 ± 0.0023 kPa
363.54 K	–	0.1995 ± 0.0026 kPa
363.55 K	–	0.1996 ± 0.0026 kPa and 0.1994 ± 0.0026 kPa
DTA	92.00 ± 0.7	–

Settings	Molar enthalpy of transition or fusion [kcal/mol]
[2]	2.8 ± 0.158

[3]
Settings	molar heat capacity at constant pressure
304.12 K, Crystal	185.5 ± 8.6 J/K/mol and 185.08 ± 8.6 J/K/mol and 185.83 ± 8.6 J/K/mol
306.11 K, Crystal	186.74 ± 8.6 J/K/mol and 186.41 ± 8.6 J/K/mol and 186.24 ± 8.6 J/K/mol
308.11 K, Crystal	188.24 ± 8.7 J/K/mol and 187.99 ± 8.7 J/K/mol and 188.07 ± 8.7 J/K/mol
310.11 K, Crystal	188.57 ± 8.7 J/K/mol and 188.99 ± 8.7 J/K/mol and 188.74 ± 8.7 J/K/mol
312.11 K, Crystal	189.4 ± 8.8 J/K/mol and 189.49 ± 8.8 J/K/mol
314.11 K, Crystal	190.82 ± 8.8 J/K/mol and 190.32 ± 8.8 J/K/mol
316.11 K, Crystal	191.23 ± 8.9 J/K/mol and 191.73 ± 8.9 J/K/mol and 192.23 ± 8.9 J/K/mol
318.11 K, Crystal	192.31 ± 8.9 J/K/mol and 192.65 ± 8.9 J/K/mol and 192.15 ± 8.9 J/K/mol
320.11 K, Crystal	193.81 ± 9 J/K/mol and 193.73 ± 9 J/K/mol and 193.56 ± 9 J/K/mol
322.11 K, Crystal	195.06 ± 9.1 J/K/mol and 195.47 ± 9.1 J/K/mol
324.11 K, Crystal	196.55 ± 9.1 J/K/mol and 196.06 ± 9.1 J/K/mol and 196.14 ± 9.1 J/K/mol
326.11 K, Crystal	196.97 ± 9.1 J/K/mol and 197.8 ± 9.1 J/K/mol and 196.8 ± 9.1 J/K/mol
328.12 K, Crystal	198.13 ± 9.2 J/K/mol and 198.22 ± 9.2 J/K/mol and 198.55 ± 9.2 J/K/mol
330.12 K, Crystal	200.13 ± 9.3 J/K/mol and 198.88 ± 9.2 J/K/mol and 199.8 ± 9.2 J/K/mol
332.13 K, Crystal	201.21 ± 9.3 J/K/mol and 200.88 ± 9.3 J/K/mol and 201.38 ± 9.3 J/K/mol
369.13 K, Liquid	247.86 ± 11 J/K/mol and 248.77 ± 12 J/K/mol and 247.19 ± 11 J/K/mol
371.13 K, Liquid	249.1 ± 12 J/K/mol and 248.1 ± 11 J/K/mol
373.13 K, Liquid	251.1 ± 12 J/K/mol and 250.68 ± 12 J/K/mol and 249.52 ± 12 J/K/mol
375.13 K, Liquid	250.68 ± 12 J/K/mol and 249.02 ± 12 J/K/mol and 253.51 ± 12 J/K/mol
377.13 K, Liquid	254.17 ± 12 J/K/mol and 251.51 ± 12 J/K/mol and 250.68 ± 12 J/K/mol
379.13 K, Liquid	253.59 ± 12 J/K/mol and 250.93 ± 12 J/K/mol and 251.35 ± 12 J/K/mol
381.13 K, Liquid	253.92 ± 12 J/K/mol and 251.01 ± 12 J/K/mol and 252.18 ± 12 J/K/mol
383.13 K, Liquid	254.76 ± 12 J/K/mol and 252.59 ± 12 J/K/mol and 252.51 ± 12 J/K/mol
385.13 K, Liquid	255.92 ± 12 J/K/mol and 253.59 ± 12 J/K/mol and 253.01 ± 12 J/K/mol
387.13 K, Liquid	255.01 ± 12 J/K/mol and 253.51 ± 12 J/K/mol and 252.93 ± 12 J/K/mol

c1ccc2c(c1)Cc1ccccc1-2 [fluorene]
[3], Crystal
Settings	molar heat capacity at constant pressure
262.36 K	171.44 ± 6.7 J/K/mol
262.44 K	171.61 ± 6.7 J/K/mol
262.47 K	171.61 ± 6.7 J/K/mol
265 K	173.52 ± 6.7 J/K/mol and 173.36 ± 6.7 J/K/mol
270 K	176.77 ± 6.8 J/K/mol and 176.68 ± 6.8 J/K/mol
275 K	180.01 ± 7 J/K/mol and 179.93 ± 7 J/K/mol and 180.09 ± 7 J/K/mol
280 K	183.33 ± 7.1 J/K/mol and 183.25 ± 7.1 J/K/mol
285 K	186.49 ± 7.2 J/K/mol and 186.41 ± 7.2 J/K/mol and 186.33 ± 7.2 J/K/mol
290 K	189.65 ± 7.3 J/K/mol and 189.49 ± 7.3 J/K/mol and 189.4 ± 7.3 J/K/mol
295 K	192.9 ± 7.5 J/K/mol and 192.81 ± 7.5 J/K/mol and 192.73 ± 7.5 J/K/mol
300 K	196.47 ± 7.6 J/K/mol and 196.31 ± 7.6 J/K/mol
305 K	201.38 ± 7.8 J/K/mol and 201.21 ± 7.8 J/K/mol
310 K	208.11 ± 8.1 J/K/mol and 208.2 ± 8.1 J/K/mol and 207.95 ± 8.1 J/K/mol
315 K	216.18 ± 8.4 J/K/mol and 216.34 ± 8.4 J/K/mol and 216.09 ± 8.4 J/K/mol
320 K	223.33 ± 8.6 J/K/mol and 223.66 ± 8.6 J/K/mol and 223.41 ± 8.6 J/K/mol
325 K	227.9 ± 8.8 J/K/mol and 228.32 ± 8.8 J/K/mol
330 K	231.81 ± 9 J/K/mol and 232.39 ± 9 J/K/mol and 232.31 ± 9 J/K/mol
335 K	236.96 ± 9.1 J/K/mol and 237.3 ± 9.2 J/K/mol and 237.21 ± 9.2 J/K/mol
340 K	242.04 ± 9.4 J/K/mol and 241.87 ± 9.4 J/K/mol
345 K	246.77 ± 9.6 J/K/mol and 246.61 ± 9.6 J/K/mol
350 K	251.85 ± 9.7 J/K/mol and 251.76 ± 9.7 J/K/mol and 251.68 ± 9.7 J/K/mol
355 K	257.25 ± 10 J/K/mol and 257.17 ± 10 J/K/mol and 257.08 ± 10 J/K/mol
358.37 K	261.08 ± 10 J/K/mol
358.5 K	261.32 ± 10 J/K/mol and 261.24 ± 10 J/K/mol
